Patent publication US20040067593A1, “Electron paramagnetic resonance method for diagnosis of active nephritis” (priority 2000, published 2004)

Experiments:
Solubility of spin trap = assay type: physicochemical
[1] = Effect of sulphite on the EPR signal of the DBNBS radical cation (DBNBS reacted with plasma or urine); design: species or system human
Description: The characteristic spectrum of DBNBS-SO3^●− was a 9 line signal with an aN=1.32 mT and aH=0.06 mT (FIG. 8). This was obtained by reacting DBNBS with hydrogen peroxide and horseradish peroxidase. The addition of 10 mM sulphite to the reaction mixture caused the signal to increase by over 100 fold in intensity. The signal could also be obtained by reacting DBNBS with sulphite alone. However, when the DBNBS was reacted with the plasma of patients with renal failure and the urine from a normal individual, only the 3 line signal with an aN=1.32 mT was seen (FIGS. 7 & 9, respectively). The hydrogen hyperfine splitting seen in the spectrum of DBNBS-SO3^●− was absent. […] Therefore, we confirmed that DBNBS-SO3^●− and the DBNBS radical cation generated by renal patients' plasma or normal urine were completely different radicals.
Addition of sulphite to the mixture of DBNBS and plasma or urine decreased the signal height of the DBNBS radical cation. This could affect the determination of the oxidant in biological samples if there was sulphite contamination in the DBNBS preparation or endogenous sulphite in the biological sample itself. Therefore the dose response effect on addition of sulphite to the reaction mixture was investigated. […]

SMILES	solubility compared with DBNBS (Solubility of spin trap)	reduction in the signal height of the DBNBS radical cation ([1]; 0.08 mM of sulphite in the reaction mixture) [%]	reduction in the signal height of the DBNBS radical cation ([1]; final concentration of 0.4 mM sulphite in the reaction mixture) [%]
O=Nc1c(Cl)cc(S(=O)(=O)O)cc1Cl [DCNBS, 3,5-dichloro-4-nitrosobenzene sulphonate]	better solubility	–	–
O=S([O-])[O-].[K+].[K+] [sulphite, dipotassium sulphite]	–	1.4	6.1
